# Assay results: paper PMC10302047, “Structure–Activity Relationship Studies of Indolglyoxyl-Polyamine Conjugates as Antimicrobials and Antibiotic Potentiators” (Pharmaceuticals, 2023)
# What was measured:
# P. aeruginosa ATCC 27853 [1] = experiment: Antibiotic potentiation (MIC of antibiotics in the presence of synergizing compounds), P. aeruginosa; type: cell-based, Pseudomonas aeruginosa; conditions: concentration required to restore doxycycline activity at 2 µg/mL (4.5 µM) against P. aeruginosa ATCC 27853
# C. albicans ATCC 90028 = experiment: Antifungal susceptibility (MIC), C. albicans; type: cell-based; conditions: Candida albicans, ATCC90028, mean (n = 2)
# Description: (§1) The susceptibility of bacterial strains S. aureus (ATCC 25923), E. coli (ATCC 25922) and P. aeruginosa (ATCC 27853) to antibiotics and compounds was determined according to previously reported protocols. Additional antimicrobial evaluation against MRSA (ATCC 43300) and C. albicans (ATCC 90028) was undertaken at the Community for Open Antimicrobial Drug Discovery at The University of Queensland (Australia) according to their standard protocols as reported previously.
# MRSA ATCC 43300 = experiment: Antimicrobial susceptibility (MIC), MRSA; type: cell-based; conditions: Staphylococcus aureus; MRSA ATCC 43300; mean (n = 2); read-out: MIC MRSA
# Description: as §1
# P. aeruginosa ATCC 27853 [2] = experiment: Antimicrobial susceptibility (MIC), P. aeruginosa; type: cell-based; conditions: Pseudomonas aeruginosa, ATCC27853, mean (n = 3), read-out: MIC P. a
# Description: as §1
# human red blood cells = experiment: Hemolytic assay; type: cell-based; conditions: mean (n = 2)
# Description: Hemolysis assays were conducted according to previously reported protocols.
# E. coli ATCC 25922 = experiment: Antimicrobial susceptibility (MIC), E. coli; type: cell-based; conditions: Escherichia coli, ATCC25922, mean (n = 3)
# Description: as §1
# S. aureus ATCC 25923 = experiment: Antimicrobial susceptibility (MIC), S. aureus; type: cell-based, Staphylococcus aureus; conditions: Staphylococcus aureus, ATCC25923; S. aureus ATCC 25923; mean (n = 3)
# Description: as §1
# [3] = Cytotoxicity assay HEK293; type: cell-based, human; conditions: human, HEK293 cells, mean (n = 2), read-out: Cyto. IC50 (concentration of compound at 50% cytotoxicity)
# Description: Cytotoxicity assays were conducted according to previously reported protocols.
Compound,Conc (µM) for Potentiation of doxycycline (P. aeruginosa ATCC 27853 [1]),MIC (C. albicans ATCC 90028),MIC (MRSA ATCC 43300),MIC (P. aeruginosa ATCC 27853 [2]),Hem. HC10 (concentration of compound at 10% hemolytic activity) (human red blood cells),MIC (E. coli ATCC 25922),MIC (S. aureus ATCC 25923),IC50 [3]
O=C(NCCCNCCCCCCCCNCCCNC(=O)C(=O)c1c[nH]c2ccccc12)C(=O)c1c[nH]c2ccccc12 [Compound 17c],50 µM,> 39 µM,39 µM,100 µM,>39 µM,12.5 µM,25 µM,10 µM
COc1ccc2[nH]cc(C(=O)C(=O)NCCCNCCCCCCCCNCCCNC(=O)C(=O)c3c[nH]c4ccc(OC)cc34)c2c1 [Compound 19c],25 µM,36 µM,> 36 µM,> 100 µM,26 µM,> 100 µM,> 100 µM,18 µM
"O=C(NCCCNCCCCCCCCCCNCCCNC(=O)C(=O)c1c[nH]c2ccccc12)C(=O)c1c[nH]c2ccccc12.O=C(O)C(F)(F)F.O=C(O)C(F)(F)F [Compound 17d, N^1,N^10-Bis(3-(2-(1H-indol-3-yl)-2-oxoacetamido)propyl)decane-1,10-diaminium 2,2,2-trifluoroacetate]",58 µM,37 µM,18.7 µM,117 µM,>37 µM,117 µM,14.6 µM,4.9 µM
"O=C(NCCCNCCCCCCNCCCNC(=O)C(=O)c1c[nH]c2ccc(Br)cc12)C(=O)c1c[nH]c2ccc(Br)cc12.O=C(O)C(F)(F)F.O=C(O)C(F)(F)F [Compound 18a, N^1,N^6-Bis(3-(2-(5-bromo-1H-indol-3-yl)-2-oxoacetamido)propyl)hexane-1,6-diaminium 2,2,2-trifluoroacetate]",6.5 µM,16.7 µM,4.17 µM,50 µM,>33 µM,6.25 µM,1.56 µM,8.9 µM
COc1ccc2[nH]cc(C(=O)C(=O)NCCCNCCCCCCCCCCCCNCCCNC(=O)C(=O)c3c[nH]c4ccc(OC)cc34)c2c1 [Compound 19e],>200 µM,34 µM,34 µM,> 200 µM,>34 µM,100 µM,12.5 µM,8.6 µM
"O=C(NCCCNCCCCCCCNCCCNC(=O)C(=O)c1c[nH]c2ccc(Br)cc12)C(=O)c1c[nH]c2ccc(Br)cc12.O=C(O)C(F)(F)F.O=C(O)C(F)(F)F [Compound 18b, N^1,N^7-Bis(3-(2-(5-bromo-1H-indol-3-yl)-2-oxoacetamido)propyl)heptane-1,7-diaminium 2,2,2-trifluoroacetate]",12.9 µM,16 µM,4.1 µM,51 µM,>33 µM,51 µM,6.4 µM,13 µM
"COc1ccc2[nH]cc(C(=O)C(=O)NCCCNCCCCCCCNCCCNC(=O)C(=O)c3c[nH]c4ccc(OC)cc34)c2c1.O=C(O)C(F)(F)F.O=C(O)C(F)(F)F [Compound 19b, N^1,N^7-Bis(3-(2-(5-methoxy-1H-indol-3-yl)-2-oxoacetamido)propyl)heptane-1,7-diaminium 2,2,2-trifluoroacetate]",114 µM,37 µM,37 µM,> 200 µM,>37 µM,> 200 µM,57 µM,> 37 µM
"O=C(NCCCNCCCCCCCNCCCNC(=O)C(=O)c1c[nH]c2c(F)cccc12)C(=O)c1c[nH]c2c(F)cccc12.O=C(O)C(F)(F)F.O=C(O)C(F)(F)F [Compound 21b, N^1,N^7-Bis(3-(2-(7-fluoro-1H-indol-3-yl)-2-oxoacetamido)propyl)heptane-1,7-diaminium 2,2,2-trifluoroacetate]",7.3 µM,38 µM,18.8 µM,> 200 µM,>38 µM,> 200 µM,7.3 µM,11 µM
"Cc1cccc2c(C(=O)C(=O)NCCCNCCCCCCCCCCCCNCCCNC(=O)C(=O)c3c[nH]c4c(C)cccc34)c[nH]c12.O=C(O)C(F)(F)F.O=C(O)C(F)(F)F [Compound 23e, N^1,N^12-Bis(3-(2-(7-methyl-1H-indol-3-yl)-2-oxoacetamido)propyl)dodecane-1,12-diaminium 2,2,2-trifluoroacetate]",220 µM,≤ 0.27 µM,≤ 0.27 µM,> 220 µM,8.4 µM,13.7 µM,6.85 µM,> 35 µM
"Cc1cccc2c(C(=O)C(=O)NCCCNCCCCCCNCCCNC(=O)C(=O)c3c[nH]c4c(C)cccc34)c[nH]c12.O=C(O)C(F)(F)F.O=C(O)C(F)(F)F [Compound 23a, N^1,N^6-Bis(3-(2-(7-methyl-1H-indol-3-yl)-2-oxoacetamido)propyl)hexane-1,6-diaminium 2,2,2-trifluoroacetate]",60 µM,> 39 µM,≤ 0.3 µM,> 240 µM,>39 µM,60 µM,30.2 µM,> 39 µM
"O=C(NCCCNCCCCCCCCCCCCNCCCNC(=O)C(=O)c1c[nH]c2c(F)cccc12)C(=O)c1c[nH]c2c(F)cccc12.O=C(O)C(F)(F)F.O=C(O)C(F)(F)F [Compound 21e, N^1,N^12-Bis(3-(2-(7-fluoro-1H-indol-3-yl)-2-oxoacetamido)propyl)dodecane-1,12-diaminium 2,2,2-trifluoroacetate]",>200 µM,35 µM,4.34 µM,> 220 µM,>35 µM,> 220 µM,27.2 µM,6.4 µM
"O=C(NCCCNCCCCCCCCNCCCNC(=O)C(=O)c1c[nH]c2c(F)cccc12)C(=O)c1c[nH]c2c(F)cccc12.O=C(O)C(F)(F)F.O=C(O)C(F)(F)F [Compound 21c, N^1,N^8-Bis(3-(2-(7-fluoro-1H-indol-3-yl)-2-oxoacetamido)propyl)octane-1,8-diaminium 2,2,2-trifluoroacetate]",58 µM,> 37 µM,18.5 µM,> 200 µM,>37 µM,> 200 µM,29 µM,9.2 µM
"COc1cccc2c(C(=O)C(=O)NCCCNCCCCCCCCCCNCCCNC(=O)C(=O)c3c[nH]c4c(OC)cccc34)c[nH]c12.O=C(O)C(F)(F)F.O=C(O)C(F)(F)F [Compound 22d, N^1,N^10-Bis(3-(2-(7-methoxy-1H-indol-3-yl)-2-oxoacetamido)propyl)decane-1,10-diaminium 2,2,2-trifluoroacetate]",400 µM,17 µM,≤ 0.27 µM,800 µM,8.4 µM,50 µM,25 µM,> 35 µM
